Measurements taken from PubChem BioAssay (NCI).
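Tested at 5 concentrations; 48 h exposure; 96-well plates; endpoints linearly interpolated, else capped at highest concentration. Definition used: TGI = concentration required for complete inhibition of growth.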

How the values were obtained:
Assay in all cases: DTP human tumour cell line panel, 48 h
[1] = system: SK-OV-3 ovarian
[2] = system: T-47D breast
[3] = system: U251 CNS
[4] = system: SK-MEL-2 melanoma
[5] = system: SK-MEL-28 melanoma
[6] = system: KM12 colon
[7] = system: DU-145 prostate
[8] = system: UACC-257 melanoma
[9] = system: A498 renal
[10] = system: ACHN renal
[11] = system: MOLT-4 leukemia
[12] = system: OVCAR-8 ovarian
[13] = system: HCT-116 colon
[14] = system: SNB-75 CNS
[15] = system: IGROV1 ovarian
[16] = system: RXF 393 renal
[17] = system: NCI-H522 lung
[18] = system: NCI-H226 lung
[19] = system: SF-539 CNS
[20] = system: 786-0 renal
[21] = system: OVCAR-4 ovarian
[22] = system: HT29 colon
[23] = system: MDA-MB-231 breast
[24] = system: HS 578T breast
[25] = system: OVCAR-5 ovarian
[26] = system: SF-268 CNS
[27] = system: NCI-H460 lung
[28] = system: SK-MEL-5 melanoma
[29] = system: SF-295 CNS
[30] = system: NCI-H23 lung
[31] = system: K-562 leukemia
[32] = system: COLO 205 colon
[33] = system: OVCAR-3 ovarian
[34] = system: RPMI-8226 leukemia
[35] = system: LOX IMVI melanoma
[36] = system: HCC-2998 colon
[37] = system: CCRF-CEM leukemia
[38] = system: MALME-3M melanoma
[39] = system: NCI/ADR-RES ovarian
[40] = system: HL-60(TB) leukemia
[41] = system: MCF7 breast
[42] = system: MDA-MB-435
[43] = system: UO-31 renal
[44] = system: EKVX NSCLC
[45] = system: HCT-15 colon
[46] = system: PC-3 prostate
[47] = system: MDA-N
[48] = system: HOP-92 NSCLC
[49] = system: SN12C renal
[50] = system: UACC-62 melanoma
[51] = system: SW-620 colon
[52] = system: SR leukemia
[53] = system: M14 melanoma
[54] = system: A549 NSCLC
[55] = system: BT-549 breast
[56] = system: HOP-62 NSCLC
[57] = system: TK-10 renal
[58] = system: SNB-19 CNS
[59] = system: CAKI-1 renal

SMILES: COC(=O)C1(Cc2ccccc2)Cc2cc3c(cc2C1)CCC3
- TGI [1]: > 100 µM
- TGI [2]: 75.9 µM
- TGI [3]: 64.9 µM
- TGI [4]: 40.1 µM
- TGI [5]: > 100 µM
- TGI [6]: 76.4 µM
- TGI [7]: > 100 µM
- TGI [8]: 78.8 µM
- TGI [9]: 82.4 µM
- TGI [10]: > 100 µM
- TGI [11]: 35 µM
- TGI [12]: 88.9 µM
- TGI [13]: 76.9 µM
- TGI [14]: 95.4 µM
- TGI [15]: > 100 µM
- TGI [16]: 50.7 µM
- TGI [17]: 56.4 µM
- TGI [18]: 63.3 µM
- TGI [19]: > 100 µM
- TGI [20]: > 100 µM
- TGI [21]: > 100 µM
- TGI [22]: 24.6 µM
- TGI [23]: > 100 µM
- TGI [24]: > 100 µM
- TGI [25]: 82.6 µM
- TGI [26]: > 100 µM
- TGI [27]: > 100 µM
- TGI [28]: 33.7 µM
- TGI [29]: > 100 µM
- TGI [30]: > 100 µM
- TGI [31]: 41.6 µM
- TGI [32]: 33.3 µM
- TGI [33]: > 100 µM
- TGI [34]: 36.5 µM
- TGI [35]: 34.7 µM
- TGI [36]: > 100 µM
- TGI [37]: 31.6 µM
- TGI [38]: 52.6 µM
- TGI [39]: > 100 µM
- TGI [40]: 31.3 µM
- TGI [41]: 42.5 µM
- TGI [42]: 35.6 µM
- TGI [43]: > 100 µM
- TGI [44]: 60.9 µM
- TGI [45]: > 100 µM
- TGI [46]: > 100 µM
- TGI [47]: 53.5 µM
- TGI [48]: 41.2 µM
- TGI [49]: > 100 µM
- TGI [50]: > 100 µM
- TGI [51]: > 100 µM
- TGI [52]: 31.3 µM
- TGI [53]: > 100 µM
- TGI [54]: > 100 µM
- TGI [55]: > 100 µM
- TGI [56]: > 100 µM
- TGI [57]: > 100 µM
- TGI [58]: > 100 µM

SMILES: Cc1cc(S(=O)(=O)Nc2n[nH]c(-c3ccc(Cl)cn3)n2)c(S)cc1Cl
- TGI [1]: > 100 µM
- TGI [2]: > 100 µM
- TGI [3]: > 100 µM
- TGI [4]: > 100 µM
- TGI [5]: > 100 µM
- TGI [6]: > 100 µM
- TGI [7]: > 100 µM
- TGI [8]: > 100 µM
- TGI [9]: > 100 µM
- TGI [10]: > 100 µM
- TGI [11]: > 100 µM
- TGI [12]: > 100 µM
- TGI [13]: > 100 µM
- TGI [14]: > 100 µM
- TGI [15]: > 100 µM
- TGI [16]: > 100 µM
- TGI [17]: > 100 µM
- TGI [18]: > 100 µM
- TGI [19]: > 100 µM
- TGI [20]: > 100 µM
- TGI [21]: > 100 µM
- TGI [22]: > 100 µM
- TGI [23]: > 100 µM
- TGI [24]: 87.2 µM
- TGI [25]: > 100 µM
- TGI [26]: > 100 µM
- TGI [27]: > 100 µM
- TGI [28]: > 100 µM
- TGI [32]: > 100 µM
- TGI [33]: > 100 µM
- TGI [34]: > 100 µM
- TGI [35]: > 100 µM
- TGI [36]: > 100 µM
- TGI [38]: > 100 µM
- TGI [39]: > 100 µM
- TGI [40]: > 100 µM
- TGI [41]: > 100 µM
- TGI [59]: > 100 µM
- TGI [42]: > 100 µM
- TGI [43]: 99.4 µM
- TGI [44]: > 100 µM
- TGI [45]: > 100 µM
- TGI [46]: > 100 µM
- TGI [47]: > 100 µM
- TGI [48]: > 100 µM
- TGI [49]: > 100 µM
- TGI [50]: > 100 µM
- TGI [51]: > 100 µM
- TGI [52]: > 100 µM
- TGI [53]: > 100 µM
- TGI [54]: > 100 µM
- TGI [55]: > 100 µM
- TGI [56]: > 100 µM
- TGI [57]: > 100 µM
- TGI [58]: 92.5 µM
